# Activity calls are given as the source filed them. The rule behind the calls is not given here.
# Biological target: Caspase-3 (Homo sapiens) + Caspase-9 (Homo sapiens) (UniProt P42574+P55211)
# Assay: caspase-9/caspase-3 cascade inhibitors, SAR follow-up, selectivity assay for Apaf-1 inhibitor project, biochemical, fluorescence (AID 588577)
# Details: recombinant LZ-caspase-9 activating caspase-3, fluorogenic substrate
# Chain of Caspase-3 (Homo sapiens) + Caspase-9 (Homo sapiens) (P42574 whole entry, looked up): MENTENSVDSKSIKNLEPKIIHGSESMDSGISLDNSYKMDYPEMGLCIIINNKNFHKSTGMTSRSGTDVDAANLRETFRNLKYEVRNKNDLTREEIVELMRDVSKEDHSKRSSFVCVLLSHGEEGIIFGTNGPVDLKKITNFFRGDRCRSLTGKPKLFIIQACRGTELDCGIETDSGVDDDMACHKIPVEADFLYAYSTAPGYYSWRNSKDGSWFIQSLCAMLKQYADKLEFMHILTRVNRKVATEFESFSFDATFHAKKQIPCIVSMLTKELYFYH
# Chain of Caspase-3 (Homo sapiens) + Caspase-9 (Homo sapiens) (P55211 whole entry, looked up): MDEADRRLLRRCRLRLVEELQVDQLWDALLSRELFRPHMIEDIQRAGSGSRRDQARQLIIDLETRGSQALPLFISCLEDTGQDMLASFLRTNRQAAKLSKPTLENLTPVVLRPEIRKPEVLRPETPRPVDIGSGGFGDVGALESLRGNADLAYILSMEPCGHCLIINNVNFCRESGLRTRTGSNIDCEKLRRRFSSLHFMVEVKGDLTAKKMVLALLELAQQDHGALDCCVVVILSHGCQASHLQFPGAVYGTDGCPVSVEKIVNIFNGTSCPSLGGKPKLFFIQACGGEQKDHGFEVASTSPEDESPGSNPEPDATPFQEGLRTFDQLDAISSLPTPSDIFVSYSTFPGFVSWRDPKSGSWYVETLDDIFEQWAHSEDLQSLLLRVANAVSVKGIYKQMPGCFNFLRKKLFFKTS
row,SMILES,IC50
1,O=C(Nc1ccc(-c2nc3ccc(NC(=O)c4cccs4)cc3[nH]2)cc1)c1cccs1,> 100 µM (inactive)
2,O=C(Nc1ccc2nc(-c3ccc(Br)o3)[nH]c2c1)c1cccs1,> 100 µM (inactive)
3,CCN(CC)CCOC(=O)c1ccc(N/C=C(/C#N)c2nc(-c3ccc(OC)cc3)cs2)cc1,> 100 µM (inactive)
4,COc1ccc(N2C(=O)CC3(CC(c4ccc(F)cc4)=NO3)C2=O)cc1 (stereo not given),37.5 µM
5,Cc1nc2ccc(-c3nc4ccc(NC(=O)c5cccs5)cc4[nH]3)cc2[nH]1,> 100 µM (inactive)
6,Cn1cc(C(CC(=O)c2ccc(C3CCCCC3)cc2)C(=O)O)c2ccccc21 (stereo not given),98.8 µM
7,CCN(CC)CCOC(=O)c1ccc(N/C=C(\C#N)c2nc(-c3ccc(Cl)c(Cl)c3)cs2)cc1,72 µM
8,O=C1c2cc(Cl)ccc2-n2c1nc1ccccc1c2=O,89.6 µM
9,O=C(Nc1ccc2nc(-c3cccs3)[nH]c2c1)c1cccs1,> 100 µM (inactive)
10,Cn1cc(C(CC(=O)c2ccc(C(C)(C)C)cc2)C(=O)O)c2ccccc21 (stereo not given),85.3 µM
11,CCN(CC)CCOC(=O)c1ccc(N/C=C(/C#N)c2nc(-c3ccc(OC)c(OC)c3)cs2)cc1,> 100 µM (inactive)
12,CCN(CC)CCOC(=O)c1ccc(N/C=C(/C#N)c2nc(-c3cc4ccccc4oc3=O)cs2)cc1,> 100 µM (inactive)
13,CCN(CC)CCOC(=O)c1ccc(N/C=C(/C#N)c2nc(-c3ccc4c(c3)OCO4)cs2)cc1,> 100 µM (inactive)
14,CC(=O)c1ccc(C(=O)Nc2ccc3nc(C)[nH]c3c2)s1,> 100 µM (inactive)
15,O=C(Nc1ccc2c(c1)C(=O)NC2=O)c1nc2ccccc2s1,> 100 µM (inactive)
16,Cc1cc(NC(=O)C2CC2)sc1C(=O)Nc1ccc2nc(-c3cc(F)ccc3F)[nH]c2c1,89.7 µM
17,CCN(CC)CCOC(=O)c1ccc(N/C=C(\C#N)c2nc(-c3ccc(Br)cc3)cs2)cc1,> 100 µM (inactive)
18,CCN(CC)CCOC(=O)c1ccc(N/C=C(\C#N)c2nc(-c3cccs3)cs2)cc1,> 100 µM (inactive)
19,Cc1ccc(-c2nc3ccc(NC(=O)c4cccs4)cc3[nH]2)o1,> 100 µM (inactive)
20,Cc1ccc2c(c1)C(=O)c1nc3ccccc3c(=O)n1-2,> 100 µM (inactive)
